Experimental data published in ChEMBL document CHEMBL1135920, “Synthesis and in vitro antitumor activity of new deaza analogues of the nonpolyglutamatable antifolate N(alpha)-(4-amino-4-deoxypteroyl)-N(delta)-hemiphthaloyl-L-ornithine (PT523)” (J Med Chem, 2002).
pIC50, pKi: −log10 of the molar value.

Tests used:
CCRF-CEM = experiment: Inhibition the growth of CCRF-CEM human leukemic lymphoblasts in culture during 72 hr of continuous drug exposure; type: functional, cell-based
Dihydrofolate reductase = target: T1, Dihydrofolate reductase (Homo sapiens, UniProt P00374); experiment: Inhibitory activity against human recombinant Dihydrofolate reductase
T1 sequence (P00374 whole entry): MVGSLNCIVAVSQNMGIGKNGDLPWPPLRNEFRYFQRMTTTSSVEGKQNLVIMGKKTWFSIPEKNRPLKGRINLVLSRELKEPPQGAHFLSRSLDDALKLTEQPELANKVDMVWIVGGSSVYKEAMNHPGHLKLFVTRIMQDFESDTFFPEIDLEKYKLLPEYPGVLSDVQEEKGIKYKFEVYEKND

Nc1nc(N)c2cc(CNc3ccc(C(=O)NC(CCCNC(=O)c4ccccc4C(=O)O)C(=O)O)cc3)ccc2n1 (centres undefined)
pIC50 (CCRF-CEM): 9.19

C#CCC(Cc1cnc2nc(N)nc(N)c2n1)c1ccc(C(=O)NC(CCCNC(=O)c2ccccc2C(=O)O)C(=O)O)cc1 (centres undefined)
pKi (Dihydrofolate reductase): 12.22
pIC50 (CCRF-CEM): 8.89

Nc1cc(N)c2cc(CCc3ccc(C(=O)NC(CCCNC(=O)c4ccccc4C(=O)O)C(=O)O)cc3)ccc2c1 (centres undefined)
pKi (Dihydrofolate reductase): 12.68
pIC50 (CCRF-CEM): 9.16

CCC(Cc1cnc2nc(N)nc(N)c2n1)c1ccc(C(=O)NC(CCCNC(=O)c2ccccc2C(=O)O)C(=O)O)cc1 (centres undefined)
pKi (Dihydrofolate reductase): 12.21
pIC50 (CCRF-CEM): 8.92

Nc1cc(N)c2nc(CCc3ccc(C(=O)NC(CCCNC(=O)c4ccccc4C(=O)O)C(=O)O)cc3)cnc2c1 (centres undefined)
pKi (Dihydrofolate reductase): 12.46
pIC50 (CCRF-CEM): 9.28
